Assay results as given in US10913727B2, “Modulators of the integrated stress pathway” (Calico Life Sciences LLC, priority 2016, dated 2021).

System: HEK293T cells carrying the ATF4 luciferase reporter
Test: ATF4-Luc assay, in vitro model of Vanishing Cell White Matter Disease (VWMD)
Assay type: cell-based
Conditions: Homo sapiens, HEK-293T, 1 μg/mL tunicamycin, 7 hours, One Glo luminescence
Experimental: In order to test exemplary compounds of the invention in a cellular context, a stable VWMD cell line was first constructed. The ATF4 reporter was prepared by fusing the human full-length ATF4 5′-UTR (NCBI Accession No. BC022088.2) in front of the firefly luciferase (FLuc) coding sequence lacking the initiator methionine as described in Sidrauski et al (eLife 2013). The construct was used to produce recombinant retroviruses using standard methods and the resulting viral supernatant was used to transduce HEK293T cells, which were then subsequently selected with puromycin to generate a stable cell line.
HEK293T cells carrying the ATF4 luciferase reporter were plated on polylysine coated 384-well plates (Greiner Bio-one) at 30,000 cells per well. Cells were treated the next day with 1 μg/mL tunicamycin and 200 nM of a compound of Formula (I) for 7 hours. Luminescence was measured using One Glo (Promega) as specified by the manufacturer. Cells were maintained in DMEM with L-glutamine supplemented with 10% heat-inactivated FBS (Gibco) and Antibiotic-Antimycotic solution (Gibco).
Table 2 below summarizes the EC50 data obtained using the ATF4-Luc assay for exemplary compounds of the invention.

SMILES	EC50 [nM]
Cn1ccc(C(=O)NC23CCC(NC(=O)COc4ccc(Cl)c(F)c4)(CC2)C(O)C3)n1 (centres unmarked) [Compound 361, N-{4-[2-(4-chloro-3-fluorophenoxy)acetamido]-3-hydroxybicyclo[2.2.2]octan-1-yl}-1-methyl-1H-pyrazole-3-carboxamide]	50 to 250
O=C(COc1ccc(Cl)c(F)c1)NC12CCC(NC(=O)c3ccccc3F)(CC1)C[C@@H]2O [Compound 560, N-{(3S)-4-[2-(4-chloro-3-fluorophenoxy)acetamido]-3-hydroxybicyclo[2.2.2]octan-1-yl}-2-fluorobenzamide]	50 to 250
O=C(COc1ccc(Cl)c(F)c1)NC12CC(NC(=O)c3ncc4ccccc4n3)(C1)C2 [Compound 749, N-{3-[2-(4-chloro-3-fluorophenoxy)acetamido]bicyclo[1.1.1]pentan-1-yl}quinazoline-2-carboxamide]	50 to 250
COc1cccc(C(=O)NC23CC(NC(=O)COc4ccc(Cl)c(F)c4)(C2)C3)c1 [Compound 301, N-{3-[2-(4-chloro-3-fluorophenoxy)acetamido]bicyclo[1.1.1]pentan-1-yl}-3-methoxybenzamide]	250 to 1000
Cc1cccnc1C(=O)NC12CC(NC(=O)COc3ccc(Cl)c(F)c3)(C1)C2 [Compound 368, N-{3-[2-(4-chloro-3-fluorophenoxy)acetamido]bicyclo[1.1.1]pentan-1-yl}-3-methylpyridine-2-carboxamide]	250 to 1000
Cc1cc2c(NC34CC(NC(=O)COc5ccc(Cl)c(Cl)c5)(C3)C4)nccn2n1 [Compound 494, 2-(3,4-dichlorophenoxy)-N-{3-[(2-methylpyrazolo[1,5-a]pyrazin-4-yl)amino]bicyclo[1.1.1]pentan-1-yl}acetamide]	< 50
O=C(COc1ccc(Cl)c(Cl)c1)NC12CCC(NC(=O)c3cnc(-c4ccc(Cl)c(F)c4)o3)(C1)C2 [Compound 110, 2-(4-chloro-3-fluorophenyl)-N-{4-[2-(3,4-dichlorophenoxy)acetamido]bicyclo-[2.1.1]hexan-1-yl}-1,3-oxazole-5-carboxamide]	50 to 250
Cc1cnc(C(=O)NC23CC(NC(=O)COc4ccc(Cl)cc4)(C2)C3)cn1 [Compound 136, N-{3-[2-(4-chlorophenoxy)acetamido]bicyclo[1.1.1]pentan-1-yl}-5-methylpyrazine-2-carboxamide]	250 to 1000
N#Cc1cnc(NC23CC(NC(=O)COc4ccc(Cl)c(F)c4)(C2)C3)cn1 [Compound 720, 2-(4-chloro-3-fluorophenoxy)-N-{3-[(5-cyanopyrazin-2-yl)amino]bicyclo[1.1.1]pentan-1-yl}acetamide]	> 2000
O=C(COc1ccc2c(c1)OC(F)(F)O2)NC12CC(NC(=O)c3ccc(OC(F)(F)F)nc3)(C1)C2 [Compound 379, N-(3-{2-[(2,2-difluoro-2H-1,3-benzodioxol-5-yl)oxy]acetamido}bicyclo[1.1.1]pentan-1-yl)-6-(trifluoromethoxy)pyridine-3-carboxamide]	50 to 250
N#Cc1ccc(C(=O)NC23CCC(NC(=O)COc4ccc(Cl)c(F)c4)(CC2)C(O)C3)nc1 (centres unmarked) [Compound 937, N-{4-[2-(4-chloro-3-fluorophenoxy)acetamido]-3-hydroxybicyclo[2.2.2]octan-1-yl}-5-cyanopyridine-2-carboxamide]	< 50
Cc1cc(C)c(C(=O)NC23CC(NC(=O)COc4ccc(Cl)c(F)c4)(C2)C3)cn1 [Compound 815, N-{3-[2-(4-chloro-3-fluorophenoxy)acetamido]bicyclo[1.1.1]pentan-1-yl}-4,6-dimethylpyridine-3-carboxamide]	> 2000
CCc1nc(C(=O)NC23CC(NC(=O)COc4ccc(Cl)c(F)c4)(C2)C3)co1 [Compound 251, N-{3-[2-(4-chloro-3-fluorophenoxy)acetamido]bicyclo[1.1.1]pentan-1-yl}-2-ethyl-1,3-oxazole-4-carboxamide]	50 to 250
O=C(COc1ccc(Cl)c(F)c1)NC12CC(Nc3ccc(C(F)(F)F)nn3)(C1)C2 [Compound 127, 2-(4-chloro-3-fluorophenoxy)-N-(3-{[6-(trifluoromethyl)pyridazin-3-yl]amino}bicyclo[1.1.1]pentan-1-yl)acetamide]	> 2000
O=C(COc1ccc(Cl)c(F)c1)NC12CC(NC(=O)c3ccc4cnccc4n3)(C1)C2 [Compound 659, N-{3-[2-(4-chloro-3-fluorophenoxy)acetamido]bicyclo[1.1.1]pentan-1-yl}-1,6-naphthyridine-2-carboxamide]	50 to 250
O=C(COc1ccc(Cl)cc1)NC12CC(Nc3cc(-c4ccc(Cl)cc4)on3)(C1)C2 [Compound 265, 2-(4-chlorophenoxy)-N-(3-{[5-(4-chlorophenyl)-1,2-oxazol-3-yl]amino}bicyclo[1.1.1]pentan-1-yl)acetamide]	< 50

SMILES	EC50 [nM]
O=C(COc1ccc(Cl)c(F)c1)NC12CCC(NC(=O)c3cnc(C(F)F)cn3)(CC1)[C@@H](O)C2 (single isomer, unassigned) [Compound 236]	< 50
O=C(COc1ccc(Cl)c(F)c1)NC12CCC(NS(=O)(=O)c3ccc(C(F)(F)F)cc3)(CC1)[C@@H](O)C2 [Compound 663, 2-(4-chloro-3-fluorophenoxy)-N-[(3S)-3-hydroxy-4-{[4-(trifluoromethyl)benzene-1-sulfonyl]amino}bicyclo[2.2.2]octan-1-yl]acetamide]	50 to 250
O=C(COc1ccc(Cl)c(F)c1)NC12CC(NC(=O)c3cc4nccnc4s3)(C1)C2 [Compound 886, N-{3-[2-(4-chloro-3-fluorophenoxy)acetamido]bicyclo[1.1.1]pentan-1-yl}thieno[2,3-b]pyrazine-6-carboxamide]	250 to 1000
Cc1cc(C(=O)NC23CCC(NC(=O)COc4ccc(Cl)c(F)c4)(CC2)CC3F)on1 (centres unmarked) [Compound 374, N-{4-[2-(4-chloro-3-fluorophenoxy)acetamido]-2-fluorobicyclo[2.2.2]octan-1-yl}-3-methyl-1,2-oxazole-5-carboxamide]	> 2000
Cc1ccc(C(=O)NC23CCC(NC(=O)COc4ccc(Cl)c(F)c4)(CC2)C(O)C3)o1 (centres unmarked) [Compound 624, N-{4-[2-(4-chloro-3-fluorophenoxy)acetamido]-3-hydroxybicyclo[2.2.2]octan-1-yl}-5-methylfuran-2-carboxamide]	50 to 250
Cc1cc(C(=O)NC23CC(NC(=O)COc4ccc(Cl)c(F)c4)(C2)C3)n(CC(C)(C)O)n1 [Compound 459, N-{3-[2-(4-chloro-3-fluorophenoxy)acetamido]bicyclo[1.1.1]pentan-1-yl}-1-(2-hydroxy-2-methylpropyl)-3-methyl-1H-pyrazole-5-carboxamide]	> 2000
O=C(COc1ccc(Cl)c(F)c1)NC12CC(Nc3nccn4cnnc34)(C1)C2 [Compound 445, 2-(4-chloro-3-fluorophenoxy)-N-{3-[([1,2,4]triazolo[4,3-a]pyrazin-8-yl)amino]bicyclo[1.1.1]pentan-1-yl}acetamide]	> 2000
O=C(COc1ccc(Cl)c(F)c1)NC12CC(Nc3cncc(-c4ccc(Cl)cc4)n3)(C1)C2 [Compound 395, 2-(4-chloro-3-fluorophenoxy)-N-(3-{[6-(4-chlorophenyl)pyrazin-2-yl]amino}bicyclo[1.1.1]pentan-1-yl)acetamide]	> 2000
CC(O)c1ccnc(C(=O)NC23CC(NC(=O)COc4ccc(Cl)c(F)c4)(C2)C3)c1 (centres unmarked) [Compound 524, N-{3-[2-(4-chloro-3-fluorophenoxy)acetamido]bicyclo[1.1.1]pentan-1-yl}-4-(1-hydroxyethyl)pyridine-2-carboxamide]	250 to 1000
O=C(COc1ccc(Cl)c(F)c1)NC12CCC(NC(=O)c3cnccn3)(CC1)[C@@H](O)C2 [Compound 732, N-{(2S)-4-[2-(4-chloro-3-fluorophenoxy)acetamido]-2-hydroxybicyclo[2.2.2]octan-1-yl}pyrazine-2-carboxamide]	250 to 1000
Cc1nc(C(F)(F)F)c(C(=O)NC23CCC(NC(=O)COc4ccc(Cl)c(F)c4)(CC2)C(O)C3)s1 (centres unmarked) [Compound 504, N-{4-[2-(4-chloro-3-fluorophenoxy)acetamido]-3-hydroxybicyclo[2.2.2]octan-1-yl}-2-methyl-4-(trifluoromethyl)-1,3-thiazole-5-carboxamide]	50 to 250
O=C(COc1ccc(Cl)c(F)c1)NC12CCC(NC(=O)c3ccc(C(F)(F)F)o3)(CC1)CC2O (centres unmarked) [Compound 625, N-{4-[2-(4-chloro-3-fluorophenoxy)acetamido]-3-hydroxybicyclo[2.2.2]octan-1-yl}-5-(trifluoromethyl)furan-2-carboxamide]	250 to 1000
O=C(COc1ccc(Cl)c(F)c1)NC12CC(Nc3cccc4cnccc34)(C1)C2 [Compound 490, 2-(4-chloro-3-fluorophenoxy)-N-{3-[(isoquinolin-5-yl)amino]bicyclo[1.1.1]pentan-1-yl}acetamide]	50 to 250
CN(C)c1ccccc1C(=O)NC12CC(NC(=O)COc3ccc(Cl)c(F)c3)(C1)C2 [Compound 532, N-{3-[2-(4-chloro-3-fluorophenoxy)acetamido]bicyclo[1.1.1]pentan-1-yl}-2-(dimethylamino)benzamide]	> 2000
Cc1cc(C)nc(C(=O)NC23CC(NC(=O)COc4ccc(Cl)c(F)c4)(C2)C3)c1 [Compound 889, N-{3-[2-(4-chloro-3-fluorophenoxy)acetamido]bicyclo[1.1.1]pentan-1-yl}-4,6-dimethylpyridine-2-carboxamide]	1000 to 2000
O=C(COc1ccc(Cl)c(F)c1)NC12CC(NC(=O)c3cnccn3)(C1)C2 [Compound 175, N-{3-[2-(4-chloro-3-fluorophenoxy)acetamido]bicyclo[1.1.1]pentan-1-yl}pyrazine-2-carboxamide]	250 to 1000
